Results reported in US8802597B2, “Herbicidal pyrimidines” (E I du Pont de Nemours and Company, priority 2003, dated 2014).

What was measured:
Experiment in all cases: Test D pre/postemergence
Format in all cases: in vivo
Conditions in all cases: scale 0 to 100 (100 = complete control)
[1] = system: Russian thistle (Salsola kali)
From the text: (§1) Seeds of plant species selected from catchweed bedstraw (galium; Galium aparine), common chickweed (Stellaria media), kochia (Kochia scoparia), lambsquarters (Chenopodium album), pigweed (Amaranthus retroflexus), Russian thistle (Salsola kali), wild buckwheat (Polygonum convolvulus), wild mustard (Sinapis arvensis), winter barley (Hordeum vulgare), and wheat (Triticum aestivum) were planted and treated preemergence with test chemicals formulated in a non-phytotoxic solvent mixture which included a surfactant.
(§2) At the same time, plants selected from these crop and weed species were treated with postemergence applications of some of the test chemicals formulated in the same manner. Plants ranged in height from 2 to 18 cm (1- to 4-leaf stage) for postemergence treatments. Treated plants and controls were maintained in a controlled growth environment for 15 to 25 days after which time all species were compared to controls and visually evaluated. Plant response ratings, summarized in Table D, are based on a scale of 0 to 100 where 0 is no effect and 100 is complete control. A dash (-) response means no test result.

[2] = system: catchweed bedstraw (galium; Galium aparine)
From the text: as §1, §2

[3] = system: common chickweed (Stellaria media)
From the text: as §1, §2

kochia (Kochia scoparia) = system: kochia (Kochia scoparia)
From the text: as §1, §2

[4] = system: lambsquarters (Chenopodium album)
From the text: as §1, §2

[5] = system: pigweed (Amaranthus retroflexus)
From the text: as §1, §2

[6] = system: wheat (Triticum aestivum)
From the text: as §1, §2

[7] = system: wild buckwheat (Polygonum convolvulus)
From the text: as §1, §2

[8] = system: wild mustard (Sinapis arvensis)
From the text: as §1, §2

For `COC(=O)c1nc(C2CC2)nc(N)c1Br` [Compound 2, methyl 6-amino-5-bromo-2-cyclopropyl-4-pyrimidinecarboxylate], the “Plant response rating, Russian Thistle” value ([1]; Postemergence, 16 g ai/ha) was 65, the “Plant response rating, Russian Thistle” value ([1]; Postemergence, 31 g ai/ha) was 85 and the “Plant response rating, Russian Thistle” value ([1]; Postemergence, 62 g ai/ha) was 95. The “Plant response rating, Russian Thistle” value ([1]; Postemergence, 125 g ai/ha) was 100, the “Plant response rating, Russian Thistle” value ([1]; Preemergence, 16 g ai/ha) was 85 and the “Plant response rating, Russian Thistle” value ([1]; Preemergence, 31 g ai/ha) was 100. The “Plant response rating, Russian Thistle” value ([1]; Preemergence, 62 g ai/ha) was 100, the “Plant response rating, Russian Thistle” value ([1]; Preemergence, 125 g ai/ha) was 100 and the “Plant response rating, Galium” value ([2]; Postemergence, 16 g ai/ha) was 75. For the same molecule, the “Plant response rating, Galium” value ([2]; Postemergence, 31 g ai/ha) was 100, the “Plant response rating, Galium” value ([2]; Postemergence, 62 g ai/ha) was 100 and the “Plant response rating, Galium” value ([2]; Postemergence, 125 g ai/ha) was 100. The “Plant response rating, Galium” value ([2]; Preemergence, 16 g ai/ha) was 80, the “Plant response rating, Galium” value ([2]; Preemergence, 31 g ai/ha) was 90 and the “Plant response rating, Galium” value ([2]; Preemergence, 62 g ai/ha) was 98. The “Plant response rating, Galium” value ([2]; Preemergence, 125 g ai/ha) was 100, the “Plant response rating, Chickweed” value ([3]; Postemergence, 16 g ai/ha) was 60 and the “Plant response rating, Chickweed” value ([3]; Postemergence, 31 g ai/ha) was 60. The “Plant response rating, Chickweed” value ([3]; Postemergence, 62 g ai/ha) was 85, the “Plant response rating, Chickweed” value ([3]; Postemergence, 125 g ai/ha) was 85 and the “Plant response rating, Chickweed” value ([3]; Preemergence, 16 g ai/ha) was 60. For the same molecule, the “Plant response rating, Chickweed” value ([3]; Preemergence, 31 g ai/ha) was 60, the “Plant response rating, Chickweed” value ([3]; Preemergence, 62 g ai/ha) was 75 and the “Plant response rating, Chickweed” value ([3]; Preemergence, 125 g ai/ha) was 90. For the same molecule, the “Plant response rating, Kochia” value (kochia (Kochia scoparia); Postemergence, 16 g ai/ha) was 75, the “Plant response rating, Kochia” value (kochia (Kochia scoparia); Postemergence, 31 g ai/ha) was 100 and the “Plant response rating, Kochia” value (kochia (Kochia scoparia); Postemergence, 62 g ai/ha) was 100. The “Plant response rating, Kochia” value (kochia (Kochia scoparia); Postemergence, 125 g ai/ha) was 100, the “Plant response rating, Kochia” value (kochia (Kochia scoparia); Preemergence, 16 g ai/ha) was 55 and the “Plant response rating, Kochia” value (kochia (Kochia scoparia); Preemergence, 31 g ai/ha) was 70. The “Plant response rating, Kochia” value (kochia (Kochia scoparia); Preemergence, 62 g ai/ha) was 100, the “Plant response rating, Kochia” value (kochia (Kochia scoparia); Preemergence, 125 g ai/ha) was 100 and the “Plant response rating, Lambsquarters” value ([4]; Postemergence, 16 g ai/ha) was 60. The “Plant response rating, Lambsquarters” value ([4]; Postemergence, 31 g ai/ha) was 100, the “Plant response rating, Lambsquarters” value ([4]; Postemergence, 62 g ai/ha) was 100 and the “Plant response rating, Lambsquarters” value ([4]; Postemergence, 125 g ai/ha) was 100. For the same molecule, the “Plant response rating, Lambsquarters” value ([4]; Preemergence, 31 g ai/ha) was 85, the “Plant response rating, Lambsquarters” value ([4]; Preemergence, 62 g ai/ha) was 95 and the “Plant response rating, Lambsquarters” value ([4]; Preemergence, 125 g ai/ha) was 100. The “Plant response rating, Pigweed” value ([5]; Postemergence, 16 g ai/ha) was 65, the “Plant response rating, Pigweed” value ([5]; Postemergence, 31 g ai/ha) was 85 and the “Plant response rating, Pigweed” value ([5]; Postemergence, 62 g ai/ha) was 100. For the same molecule, the “Plant response rating, Pigweed” value ([5]; Postemergence, 125 g ai/ha) was 100, the “Plant response rating, Pigweed” value ([5]; Preemergence, 16 g ai/ha) was 65 and the “Plant response rating, Pigweed” value ([5]; Preemergence, 31 g ai/ha) was 70. The “Plant response rating, Pigweed” value ([5]; Preemergence, 62 g ai/ha) was 85, the “Plant response rating, Pigweed” value ([5]; Preemergence, 125 g ai/ha) was 100 and the “Plant response rating, Wheat” value ([6]; Postemergence, 16 g ai/ha) was 70. For the same molecule, the “Plant response rating, Wheat” value ([6]; Postemergence, 31 g ai/ha) was 70, the “Plant response rating, Wheat” value ([6]; Postemergence, 62 g ai/ha) was 100 and the “Plant response rating, Wheat” value ([6]; Postemergence, 125 g ai/ha) was 100. The “Plant response rating, Wheat” value ([6]; Preemergence, 16 g ai/ha) was 45, the “Plant response rating, Wheat” value ([6]; Preemergence, 31 g ai/ha) was 60 and the “Plant response rating, Wheat” value ([6]; Preemergence, 62 g ai/ha) was 70. For the same molecule, the “Plant response rating, Wheat” value ([6]; Preemergence, 125 g ai/ha) was 70, the “Plant response rating, Buckwheat, Wild” value ([7]; Postemergence, 16 g ai/ha) was 45 and the “Plant response rating, Buckwheat, Wild” value ([7]; Postemergence, 31 g ai/ha) was 65. The “Plant response rating, Buckwheat, Wild” value ([7]; Postemergence, 62 g ai/ha) was 90, the “Plant response rating, Buckwheat, Wild” value ([7]; Postemergence, 125 g ai/ha) was 95 and the “Plant response rating, Buckwheat, Wild” value ([7]; Preemergence, 16 g ai/ha) was 45. For the same molecule, the “Plant response rating, Buckwheat, Wild” value ([7]; Preemergence, 31 g ai/ha) was 65, the “Plant response rating, Buckwheat, Wild” value ([7]; Preemergence, 62 g ai/ha) was 80 and the “Plant response rating, Buckwheat, Wild” value ([7]; Preemergence, 125 g ai/ha) was 85. For the same molecule, the “Plant response rating, Mustard, Wild” value ([8]; Postemergence, 16 g ai/ha) was 65, the “Plant response rating, Mustard, Wild” value ([8]; Postemergence, 31 g ai/ha) was 65 and the “Plant response rating, Mustard, Wild” value ([8]; Postemergence, 62 g ai/ha) was 70. For the same molecule, the “Plant response rating, Mustard, Wild” value ([8]; Postemergence, 125 g ai/ha) was 80, the “Plant response rating, Mustard, Wild” value ([8]; Preemergence, 16 g ai/ha) was 50 and the “Plant response rating, Mustard, Wild” value ([8]; Preemergence, 31 g ai/ha) was 70. The “Plant response rating, Mustard, Wild” value ([8]; Preemergence, 62 g ai/ha) was 70 and the “Plant response rating, Mustard, Wild” value ([8]; Preemergence, 125 g ai/ha) was 85.
